Source: paper PMC5370004, “Doxycycline directly targets PAR1 to suppress tumor progression” (Oncotarget, 2017)

Molecular target: T1, Protease-activated receptor 1 (PAR1) (Homo sapiens, UniProt P25116)
T1 construct: gene F2R; PAR1 purified from 293-PAR1 cell lines
T1 sequence (P25116 42-425): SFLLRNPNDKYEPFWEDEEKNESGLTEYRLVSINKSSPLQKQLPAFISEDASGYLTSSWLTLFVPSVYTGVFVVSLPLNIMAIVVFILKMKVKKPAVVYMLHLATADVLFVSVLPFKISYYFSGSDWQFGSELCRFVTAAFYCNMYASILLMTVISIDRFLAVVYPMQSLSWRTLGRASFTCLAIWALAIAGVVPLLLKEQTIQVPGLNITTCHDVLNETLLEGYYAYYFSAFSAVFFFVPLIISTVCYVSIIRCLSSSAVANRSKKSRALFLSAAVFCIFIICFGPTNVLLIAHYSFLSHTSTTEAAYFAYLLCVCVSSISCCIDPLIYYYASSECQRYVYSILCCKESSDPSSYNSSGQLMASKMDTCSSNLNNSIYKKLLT
Assay: SPR (Biacore […], PAR1 immobilized on CM5 chip)
Assay type: binding

Kd: 23 µM
SMILES: C[C@H]1c2cccc(O)c2C(=O)C2=C(O)[C@]3(O)C(=O)C(C(N)=O)=C(O)[C@@H](N(C)C)[C@@H]3[C@@H](O)[C@@H]21 [Doxycycline]
